A short description of this assay: Nanoindentation (hardness and elastic modulus) of remineralized enamel sections. Also on record: species or system human. The note with it: demineralization 2 h pH 4.6; 7-day mineralization cycle in artificial saliva, daily application, hydrogels 0.2 mg/ml; mean ± SD. On the procedure: To enhance the mechanical responses, the remineralization cycle was optimized and extended to 7 days. After demineralization, each tooth setting (comprising 3 or 4 teeth sections) was placed into separate cylindrical containers containing remineralization solution (30 ml, pH 7, RT) for 1 week. Experimental groups included healthy enamel, demineralized enamel, control (900 ppm F^−; 0.2% NaF), P26-CS and P32-CS (n = 3 per group).
Every 24 h after the start of the remineralization cycle, 30 μL of NaF solution (900 ppm F^−; 0.2% NaF) was added on top of each tooth for 10 min per day. The teeth were gently rinsed in distilled water and dried. A fresh 20 μl treatment application (P26-CS and P32-CS) was made to each window, followed by air drying for 15 min at RT and then the samples were returned to the fresh stock of remineralization solution. The remineralization solution and peptide were replaced daily. After 1 week of daily treatment application, the slices were sonicated, rinsed, dried, and stored in distilled water at 4°C for nanoindentation. The hardness and elastic modulus of the peptide-mediated mineralized layers were evaluated by nanoindentation tests. The device was calibrated to examine the mechanical properties of the remineralized HAP layers on teeth slices at the nanoscale. […]

The results in this text go back to paper PMC10611442, “Amelogenin Peptide-Chitosan Hydrogel for Biomimetic Enamel Regrowth” (Frontiers in dental medicine, 2021).

On to `[F-].[Na+]` [0.2% NaF, NaF], for which the “elastic modulus of regrown enamel (nanoindentation)” value came out at 40.57 ± 15.8 GPa and the “hardness of regrown enamel (nanoindentation)” value worked out at 1.3 ± 0.6 GPa.
